Consider three compounds from patent US9795548B2, “Oral care compositions” (Colgate-Palmolive Company, priority 2012, dated 2017).

Holding throughout (format): cell-based
One assay has as its system PGE2. Put plainly: Mat Tek PGE2 tissue model, anti-inflammatory activity. Conditions: dentifrice slurry 1:4 in PBS, base dentifrice with 1% active; 2 minutes treatment; IL-β about 10 ng/ml. As for the experimental part: Anti-inflammatory activity of IPM is evaluated using the Mat Tek PGE2 tissue model.
One (1) mL of tissue culture media (supplied by MatTek) is added to each well of a 6-well plate (×4). The plate is incubated overnight (37° C., 5% CO2). Treatment solutions comprising the dentifrice slurries are prepared, wherein the base dentifrice contains 1% isopropyl magnolol. Slurries of the dentifrices are prepared in a 1:4 ratio by weight of dentifrice:phosphate buffered saline (PBS). Slurries are placed on a stir plate for a minimum of 30 minutes to allow the solution to fully homogenize.
The tissue media is prepared by adding IL-β from a frozen stock solution to the tissue culture media. The final concentration of IL-β in the media is about 10 ng/ml.
1 ml of tissue culture media containing IL-β is added to each well of a 6-well plate (×4). […] of treatment solution is then added to the surface of the tissue and let sit for 2 minutes. The treatment solution is removed by aspiration.
The tissue is then washed using about 200 μl of PBS. PBS is then removed by aspiration, and the process is repeated for a total of 3 washes.
Tissue is then transferred the original 6-well plates to new 6-well plates with media containing IL-β. The plates are incubated (37° C., 5% CO2) for between 7 and 24 hours, depending on the active or dentifrice being tested.
The used media from the old 6-well plates is pipetted into a single 24-well plate, for use as a baseline sample. The plates are removed from the incubator and the used media is pipetted from the 6-well plates into a single 24-well plate, for use as a reference sample for the designated time point. The results of this assay are described in Table 3 (below).

The subject of a further assay is Streptococcus sanguis. Put plainly: Minimum Inhibitory Concentration (MIC), two-fold dilutions in trypticase soy broth. Conditions: 18-24 hours of incubation. As for the experimental part:
(§1) Minimum Inhibitory Concentration (MIC) values are determined generally according to the following method: A series of two-fold dilutions in trypticase soy broth (Catalog No. 211768; Becton Dickinson, Franklin Lakes N.J.) are prepared in a 96 well plate and a constant amount of bacteria is then added to each well. After 18-24 hours of incubation, bacterial growth is measured with a Spectrophotometric Micro-plate Reader (Powerwave 5×, BioTEK, Winooski Vt.) and the MIC values are determined.
(§2) Table 4 (below) describes the antibacterial efficacy of isopropyl magnolol against various oral pathogens.

Another assay has as its system Fusobcaterium nucleatum. The assay is described as above. As for the experimental part:
as §1, §2

A further assay deals with Actinomyces viscosus. Described as above. Conditions: 18-24 hours of incubation. Here is the method: as §1, §2
The next assay relates to A. actinomycetemcomitans. The description is as above. Conditions: Aggregatibacter actinomycetemcomitans, 18-24 hours of incubation. Here is the method: as §1, §2
The next assay has as its system Streptoccus mutans. The description is as above. As for the experimental part: as §1, §2

In brackets after ≈: the same amount, converted by molar mass.

As to `CCCCc1ccc(O)c(-c2cc(CCCC)ccc2O)c1` [Butyl magnolol], in the assay on PGE2, the “PGE2 reduction (%)” value was found to be 29.98%.
As to `CC(C)c1ccc(O)c(-c2cc(C(C)C)ccc2O)c1` [Isopropyl magnolol, 5,5′-diisopropyl-2,2′-dihydroxy biphenol], the MIC worked out at 1.95 µg/mL (≈ 7.21 µM) in the assay with Streptococcus sanguis; 0.97 µg/mL (≈ 3.59 µM) in the assay on Fusobcaterium nucleatum; 3.9 µg/mL (≈ 14.4 µM) with Actinomyces viscosus; 3.9 µg/mL (≈ 14.4 µM) with A. actinomycetemcomitans; 3.9 µg/mL (≈ 14.4 µM) against Streptoccus mutans. Besides, in the assay on PGE2, the “PGE2 reduction (%)” value amounted to 90.88%.
Consider `C=CCc1ccc(O)c(-c2cc(CC=C)ccc2O)c1` [Magnolol, 5,5′-Diallyl-biphenyl-2,2′-diol], for which the MIC with Streptococcus sanguis worked out at 15.6 µg/mL (≈ 58.6 µM); in the assay on Fusobcaterium nucleatum it was 7.8 µg/mL (≈ 29.3 µM); against Actinomyces viscosus, 15.6 µg/mL (≈ 58.6 µM); against A. actinomycetemcomitans, 15.6 µg/mL (≈ 58.6 µM); in the assay with Streptoccus mutans, 15.6 µg/mL (≈ 58.6 µM). In addition, the “PGE2 reduction (%)” value in the assay on PGE2 was 88.23%.
